In PMC10442399, “Crystal structure and functional implications of cyclic di-pyrimidine-synthesizing cGAS/DncV-like nucleotidyltransferases” (Nature Communications, 2023):
Entries after “also recorded” stand apart in the source; their conditions may differ. Read-outs that look alike come from different tables or passages of the source.

What was measured:
[1] = molecular target: T1, EfCdnE^R279A (Enterococcus faecalis, UniProt P0DX98, R279A); assay: ITC analysis of nucleotide binding to EfCdnE^R279A mutant
T1 construct: Full-length gene fragments encoding ClCdnE from Cecembia lonarensis; His6 (C); made in house; host or cells: E. coli BL21 (DE3)
From the text: (§1) To validate the importance of this motif, we changed Arg279 and Trp281 of EfCdnE to a smaller alanine residue and assessed the substrate specificity and product synthesis of both wild-type and mutant EfCdnE by ITC and LC-MS/MS. […] Based on sequence conservation and structural similarity, it is proposed that the cyclic di-pyrimidine-synthesizing CdnE proteins, including ClCdnE, EfCdnE, and LpCdnE, form smaller donor pockets that act as molecular gauges to recognize and retain the binding of pyrimidine nucleotides but weaken or exclude the binding to purine nucleotides (Fig. 6F). In combination with the conserved Asn residue in the acceptor pocket, the substrate specificity for double pyrimidine was achieved (Fig. 6F).
(§2) EfCdnE was chosen as the sample to evaluate the affinity of this class of enzyme to different nucleotides by isothermal titration calorimetry (ITC), using nano-ITC (TA Instruments). EfCdnE was dialyzed overnight against an assay buffer containing 20 mM Tris pH 8.0, 150 mM NaCl. The nucleotides to be tested (UTP, CTP, ATP and GTP, and their analogs) were each dissolved in the same buffer. […] The final data were analyzed and curve-fitted with sequential two-site mode by using NanoAnalyze v3.12.5 (TA Instruments).

[2] = molecular target: T2, EfCdnE (Enterococcus faecalis, UniProt P0DX98); assay: ITC analysis of nucleotide binding to wild-type EfCdnE
T2 construct: Full-length gene fragments encoding ClCdnE from Cecembia lonarensis; made in house; host or cells: E. coli BL21 (DE3)
Method: EfCdnE was chosen as the sample to evaluate the affinity of this class of enzyme to different nucleotides by isothermal titration calorimetry (ITC), using nano-ITC (TA Instruments). EfCdnE was dialyzed overnight against an assay buffer containing 20 mM Tris pH 8.0, 150 mM NaCl. The nucleotides to be tested (UTP, CTP, ATP and GTP, and their analogs) were each dissolved in the same buffer. Titration was carried out by 20 sequential injections of the nucleotide at a concentration of 250 μM at 3-min intervals to 50 μM EfCdnE, with a stirring speed of 300 rpm. The heat of dilution resulting from injecting the nucleotide into the assay buffer was subtracted. The final data were analyzed and curve-fitted with sequential two-site mode by using NanoAnalyze v3.12.5 (TA Instruments).

[3] = molecular target: T3, EfCdnE^W281A (Enterococcus faecalis, UniProt P0DX98, W281A); assay: ITC analysis of nucleotide binding to EfCdnE^W281A mutant; conditions: read-out: dissociation constant (KD)
T3 construct: Full-length gene fragments encoding ClCdnE from Cecembia lonarensis; His6 (C); made in house; host or cells: E. coli BL21 (DE3)
T3 sequence (P0DX98 1-299 W281A): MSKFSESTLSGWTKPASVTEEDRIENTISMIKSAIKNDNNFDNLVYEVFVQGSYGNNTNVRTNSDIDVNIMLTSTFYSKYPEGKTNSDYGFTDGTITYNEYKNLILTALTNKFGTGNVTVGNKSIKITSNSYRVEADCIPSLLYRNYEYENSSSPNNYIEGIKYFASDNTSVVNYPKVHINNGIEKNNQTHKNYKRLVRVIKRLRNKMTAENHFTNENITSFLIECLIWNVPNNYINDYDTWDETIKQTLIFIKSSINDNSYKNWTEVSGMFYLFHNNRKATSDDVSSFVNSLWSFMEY
From the text: as §1, §2

[4] = dissociation constant (KD), second of two binding sites, ITC, wild-type EfCdnE, sequential two-site fit, second-named site (acceptor pocket for UMPnPP)

T2 sequence (P0DX98 whole entry, the tested form may be a part): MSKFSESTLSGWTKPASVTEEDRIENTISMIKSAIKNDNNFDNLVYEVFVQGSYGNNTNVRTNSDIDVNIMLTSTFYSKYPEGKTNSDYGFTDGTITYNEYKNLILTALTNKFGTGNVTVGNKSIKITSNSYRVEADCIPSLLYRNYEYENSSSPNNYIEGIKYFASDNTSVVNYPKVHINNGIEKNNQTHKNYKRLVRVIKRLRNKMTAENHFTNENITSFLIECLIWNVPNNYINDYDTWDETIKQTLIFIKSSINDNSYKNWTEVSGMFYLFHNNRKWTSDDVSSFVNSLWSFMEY
T1 sequence (P0DX98 whole entry R279A, the tested form may be a part): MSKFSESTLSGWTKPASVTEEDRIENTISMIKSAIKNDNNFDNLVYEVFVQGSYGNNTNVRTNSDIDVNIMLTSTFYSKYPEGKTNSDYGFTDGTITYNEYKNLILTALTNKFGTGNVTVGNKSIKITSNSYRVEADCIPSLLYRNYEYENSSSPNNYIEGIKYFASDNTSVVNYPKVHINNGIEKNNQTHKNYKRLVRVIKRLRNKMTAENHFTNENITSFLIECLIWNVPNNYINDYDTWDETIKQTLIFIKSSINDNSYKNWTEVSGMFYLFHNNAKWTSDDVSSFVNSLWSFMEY

SMILES	binding affinity, dissociation constant (in words) [1]	binding to EfCdnE (in words) ([2]; ITC, wild-type EfCdnE)	Kd [3] [µM]	Kd [2] [µM]	binding to EfCdnE pre-incubated with UMPnPP (in words) ([2]; ITC, EfCdnE pre-incubated with UMPnPP)	Kd [2, 4] [µM]
Nc1ncnc2c1ncn2[C@@H]1O[C@H](COP(=O)(O)OP(=O)(O)OP(=O)(O)O)[C@@H](O)[C@H]1O [ATP]	near micromolar	did not				
Nc1nc2c(ncn2[C@@H]2O[C@H](COP(=O)(O)CP(=O)(O)OP(=O)(O)O)[C@@H](O)[C@H]2O)c(=O)[nH]1 [GMPcPP]		No binding; also recorded: too weak to be detected	65			
Nc1ccn([C@@H]2O[C@H](COP(=O)(O)CP(=O)(O)OP(=O)(O)O)[C@@H](O)[C@H]2O)c(=O)n1 [CMPcPP]				0.0187	no binding; also recorded: did not bind	1.27
O=c1ccn([C@@H]2O[C@H](COP(=O)(O)NP(=O)(O)OP(=O)(O)O)[C@@H](O)[C@H]2O)c(=O)[nH]1 [UMPnPP]				0.0147		0.98
Nc1nc2c(ncn2[C@@H]2O[C@H](COP(=O)(O)OP(=O)(O)OP(=O)(O)O)[C@@H](O)[C@H]2O)c(=O)[nH]1 [GTP]	near micromolar	did not				
Nc1ncnc2c1ncn2[C@@H]1O[C@H](COP(=O)(O)CP(=O)(O)OP(=O)(O)O)[C@@H](O)[C@H]1O [AMPcPP]		No binding; also recorded: too weak to be detected	35			
